For data set [1] the following is noted: cited from earlier work; for Effective radiation dose of conventional nuclear medical imaging agent examination: in vivo. The text has this:
The effective radiation dose to the body of ^99mTc-3P4-RGD2 and ^99mTc-RGD-BBN were 1.15 ± 0.13 mSv and 0.65 ± 0.07 mSv respectively ^9. According to the 2007 Recommendations of the International Commission on Radiological Protection (ICRP), radiation equivalent dose which occupational workers’ vital organs were exposed to should be less than 500mSv and radiosensitive organs should be less than 150mSv. In our study, the mean absorbed dose equivalent for the whole body was 2.02E-03 mSv / MBq in healthy males and 2.31E-03 mSv / MBq in healthy females. Compared with other clinical mar ...

For another data set, the system named is breast malignant lesions. Briefly: SPECT/CT scintimammography of patients with breast malignant tumors. Type of data set: in vivo, human. More on the design: key to Visual uptake grading: grade 1 = no abnormal increased uptake; grade 2 = mildly increased or heterogeneous uptake; grade 3 = definite focal increased uptake. As to conditions: for Visual uptake grading: SPECT/CT 1 h p.i., 3 readers. From the text:
All patients were sent to the ^99mTc-3P4-RGD2 and ^99mTc-RGD-BBN SMM on an individual basis. The time interval between two imaging procedures was 48–54 hr. Finally, ^99mTc-RGD-BBN and ^99mTc-3P4-RGD2 SMM results were compared with each other. To be included, a patient had to be without any other history of breast disease. Exclusion criteria included pregnancy, lactation and a body weight greater than 80 kg.
The 3P4-RGD2 and RGD-BBN were generously provided by the Medical Isotopes Research Center of Peking University in freeze-dried kits form. Na^99mTcO4 was obtained from a commercial ^99Mo/^99mTc generator (Beijing Atom High Tech Co., Ltd.). The kit for preparation of ^99mTc-3P4-RGD2 was formulated by containing, per millilitre, 20 μg of HYNIC-3P4-RGD2, 5 mg of TPPTS, 6.5 mg of tricine, 40 mg of mannitol, 38.5 mg of disodium succinate hexahydrate and 12.7 mg of succinic acid. Radiolabeling and quality control procedures for ^99mTc-3P4-RGD2 were performed as described previously ^4. The kit for preparation of ^99mTc-RGD-BBN was formulated by containing, per millilitre, 20 μg of HYNIC-RGD-BBN, 6 mg of TPPTS, 10 mg of tricine, 40 mg of mannitol, 38.5 mg of disodium succinate hexahydrate and 12.7 mg of succinic acid. Then 1 mL of Na^99mTcO4 solution in saline was added to each kit vial followed by 30 min incubation at 100°C. The quality control was conducted by radioactive thin layer chromatography (ITLC), counting the high labeling yield of about 95%. Both ^99mTc-3P4-RGD2 and ^99mTc-RGD-BBN with a mean radioactivity of 299 ± 30 MBq and 293 ± 32 MBq were administered via single intravenous bolus injection followed by a 10 mL saline flush. ^99mTc-3P4-RGD2 and ^99mTc-RGD-BBN was performed with SPECT/CT at 1 h after intravenous injection of radiotracers respectively on separate days.
SPECT: Emission images were acquired using a dual-head, large field-of-view scintillation camera (Precedence, Philips Healthcare), equipped with a low-energy, high-resolution and parallel-hole collimator. In all healthy volunteers, planar images in both anterior and posterior views were acquired at 10 min, 30 min, 1 h, 2 h, 4 h, 8 h and 24 h post-injection and were stored digitally, using ^99mTc with a 20% energy window centered on 140 keV and 128×128 matrix. The velocity of scanning was 15 cm/min. SPECT images in all the patients were acquired over 360° (180°per head) in supine position with raised arms during the imaging. Imaging with both radiotracers was performed using 6°angular steps in a 20 s time frame, with a 64×64 matrix size. Distance between the breast and detector was minimized. The position of the patient was recorded in detail and kept consistent to the greatest extent in the second SPECT scan to make sure that the two different SPECT images could be fused to the CT images.
CT images from neck to abdomen were acquired sequentially in a non-dedicated 3rd-generation scanner installed in the SPECT camera gantry, with a 10 mm slice thickness, a maximum current of 2.5 mA and a 140 kV potential. The patients just had one CT scan since ^99mTc-3P4-RGD2 and ^99mTc-RGD-BBN SPECT were undertaken on the same device.
All images were interpreted qualitatively by three experienced nuclear medicine radiologists who were unaware of the clinical history and other test results of all patients. Visual analysis was performed on a per-lesion basis and in a blinded fashion. A 3-point scale system was adopted to describe the uptake degree for breast lesions. […] Homogeneous uptake in both breasts was classified as grade 1. SMM was considered positive for malignancy if the visual score was ≥2. There was no disagreement between three radiologists in our study.

Regarding `O.O.O=P([O-])([O-])CP(=O)([O-])[O-].[99Tc+4]` [99mTc—MDP], the “Effective radiation dose of conventional nuclear medical imaging agent examination” value in data set [1] is on record as 5.92 mSv.
Take `[99Tc].[C-]#[N+]CC(C)(C)OC.[C-]#[N+]CC(C)(C)OC.[C-]#[N+]CC(C)(C)OC.[C-]#[N+]CC(C)(C)OC.[C-]#[N+]CC(C)(C)OC.[C-]#[N+]CC(C)(C)OC` [99mTc—MIBI]: in data set [1], the “Effective radiation dose of conventional nuclear medical imaging agent examination” value is listed as 7.05 mSv.
In the case of “[^99mTc (HYNIC-3PRGD2) (tricine) (TPPTS)] [99mTc-3P4-RGD2]”, the Visual uptake grading with breast malignant lesions (Patient 1: DCIS, R, 2.3 cm, αvβ3 -, GRPR +) is listed as 1; in the data set on breast malignant lesions (Patient 2: DCIS, L, 2.0 cm, αvβ3 +, GRPR +), 3; in the data set with breast malignant lesions (Patient 3: IDC, L, 5.1 cm, αvβ3 +, GRPR +) it was 3; in the data set on breast malignant lesions (Patient 4: IDC, R, 2.1 cm, αvβ3 +, GRPR -), 3; in the data set on breast malignant lesions (Patient 5: IDC, L, 5.8 cm, αvβ3 +, GRPR +) it was 3; with breast malignant lesions (Patient 6: IDC, L, 6.3 cm, αvβ3 +, GRPR +) it was 3. Moreover, the “Malignant lesions detected by SPECT/CT (of 6 malignant lesions in 6 patients)” value with breast malignant lesions (SPECT/CT 1 h after i.v. injection, 4 IDC, 2 DCIS) is “five lesions with clear uptake and the other one with barely uptake”. The “Effective radiation dose to the body” value in data set [1] (per examination (299 ± 30 MBq 99mTc-3P4-RGD2, 293 ± 32 MBq 99mTc-RGD-BBN i.v.)) is on record as 1.15 ± 0.13 mSv.

The record behind these values is paper PMC4388716, “An Exploratory Study on ^99mTc-RGD-BBN Peptide Scintimammography in the Assessment of Breast Malignant Lesions Compared to ^99mTc-3P4-RGD2” (PLoS ONE, 2015).
